{"source": "patent US20140051701A1", "about": "“METHODS OF TREATING A DISEASE OR CONDITION OF THE CENTRAL NERVOUS SYSTEM” (Bionomics Limited, priority 2011, published 2014)", "key": {"[1]": {"test_system": "rat primary cortical neurons", "assay": "Neurite outgrowth assay in cortical neuron culture", "format": "cell-based", "conditions": "for minimal effective concentration: Rattus norvegicus, Primary cortical neuron, 72 h, 3 days exposure of cortical neurons, read-out: concentration giving significant neurite outgrowth; for effect on neurite outgrowth, substance alone: primary cortical neurons; for block of Compound 1-induced enhancement of neurite outgrowth by PLC inhibitor: inhibitor in combination with Compound 1", "protocol": "Female rats of 17 days gestation were killed by cervical dislocation and the foetuses were removed from the uterus. Their brains were placed in ice-cold medium of Leibovitz (L15, Gibco, Fisher bioblock, France). Cortex were dissected and meninges were carefully removed. The cortical neurons were dissociated by trypsinization for 30 min at 37° C. (trypsin-EDTA Gibco) in presence of 0.1 mg/ml DNAse I (Roche, France). The reaction was stopped by addition of in medium of Eagle modified by Dulbecco (DMEM; Gibco) with 10% of fetal bovine serum (FBS; Gibco). The suspension was triturated with a 10-ml pipette and using a needle syringe 21G and centrifuged at 350×g for 10 min at room temperature. The pellet of dissociated cells was resuspended in a medium consisting of Neurobasal (Gibco) supplemented with 2% B27 supplement (Gibco), 0.5 mM L-Glutamine (Gibco), an antibiotic-antimicotic mixture. Viable cells were counted in a Neubauer cytometer using the trypan blue exclusion test (Sigma). Cells were seeded on the basis of 30000 cells per Petri dish (ø35 mm, Nunc) precoated with poly-L-lysine.\nCells were allowed to adhere 2 h and maintained in a humidified incubator at 37° C. in 5% CO2-95% air atmosphere.\nAfter neuronal adhesion (2 h after the plating), cultures were exposed to Compound 1 or BDNF for a period of 3 days.\nAfter the 3 days exposure of the neurons to the test compounds, cultures were washed with phosphate-buffered saline (PBS, Gibco) and fixed using 2.5% glutaraldehyde in PBS. Several pictures (˜80) of neurons with neurites without any branching were taken per condition using a digital camera (Coolpix 995; Nikon) mounted on the microscope (Nikon, objective 40×). Neurites were outlined on computer screen using imaging software (Image-Pro Plus, France), which automatically calculates the length.\nA global analysis of the data was performed using a one way analysis of variance (ANOVA), followed by Fisher's Protected Least Significant Difference when applicable. The level of significance was set to p<0.05. All results were expressed as mean±sem. N=˜180 cells\nThe compound of example 1h was tested at 0.1 nM, 1 nM, 10 nM, 100 nM and 1000 nM on two independent cultures comprising 2 Petri dishes per culture and per condition. In parallel, BDNF was tested at 50 ng/ml."}, "[2]": {"assay": "Non-precipitated withdrawal (physical dependence) after 14-day dosing", "format": "in vivo, rat", "conditions": "14 days at 10, 30 and 100 mg/kg/day; 5 days post-treatment; versus no-drug group; listed as Compound 1", "source_text": "Sudden discontinuation of antidepressant medication may produce withdrawal effects caused by physical dependence on the drug. Compounds can be evaluated for physical dependence in a simple animal model where, following a period of chronic dosing (e.g., for 14-20 days), the study drug is stopped and measurements of food intake, body weight and body temperature are taken over the next 5 days. […] This model is suitable for detecting the effects across a broad range of drug classes including opiates, antidepressants and benzodiazepines. […]\nRats treated chronically (14-20 days) with opioids, benzodiazepines Or SSRIs display adverse physical effects after non-precipitated withdrawal of the drugs. The potential consequences of abrupt cessation of dosing with Compound 1 was assessed following 14 days of treatment at 0, 10, 30 and 100 mg/kg/day."}, "mouse": {"test_system": "mouse", "assay": "Mouse light dark box model", "format": "in vivo", "protocol": "U73122 was then examined for an in vivo effect on the activity of Example 1 in the mouse light dark box. U73122 was given IP at 30 mg/kg, 120 minutes prior to testing. Compound 1 was dosed orally at 10 mg/kg, 60 minutes prior to testing. […] This experiment was repeated using the anxiolytic compound diazepam to determine whether the activity of U73122 was specific to Compound 1 (FIG. 5)."}}, "note": "Entries after “also recorded” stand apart in the source; their conditions may differ.", "data": [{"molecule": "CCOC(=O)c1cn(CC)c2ncc(N)cc2c1=O", "note": "[Example 1f, Ethyl 1-ethyl-1,4-dihydro-6-amino-4-oxo-1,8-naphthyridine-3-carboxylate]", "values": [{"measurement": "minimal effective concentration", "setting": "[1]", "result": "< 0.1", "unit": "µM"}]}, {"molecule": "CCOC(=O)c1cn(CC)c2ncc(NC3Cc4ccccc4C3)cc2c1=O", "note": "[Example 1g, Ethyl 6-(2,3-dihydro-1H-inden-2-ylamino)-1-ethyl-1,4-dihydro-4-oxo-1,8-naphthyridine-3-carboxylate]", "values": [{"measurement": "minimal effective concentration", "setting": "[1]", "result": "< 0.1", "unit": "µM"}]}, {"molecule": "CCn1cc(C(=O)N2CCOCC2)c(=O)c2cc(NC3Cc4ccccc4C3)cnc21", "note": "[Example 1h]", "values": [{"measurement": "minimal effective concentration", "setting": "[1]", "result": "< 0.1", "unit": "µM"}, {"measurement": "effect on neurite outgrowth, substance alone", "setting": "[1]", "result": "enhancement of neurite outgrowth"}, {"measurement": "changes in body temperature, weight gain or food consumption after withdrawal", "setting": "[2]", "result": "does not produce signs of withdrawal; also recorded: did not produce significant changes"}, {"measurement": "anxiolytic activity", "setting": "mouse; 10 mg/kg orally, 60 minutes prior to testing", "result": "robust anxiolytic activity"}]}, {"molecule": "CCn1cc(C(=O)N2CCN(C)CC2)c(=O)c2cc(NC3Cc4ccccc4C3)cnc21", "note": "[Example 2, Methylpiperazino 6-(2,3-dihydro-1H-inden-2-ylamino)-1-ethyl-1,4-dihydro-4-oxo-1,8-naphthyridine-3-carboxamide]", "values": [{"measurement": "minimal effective concentration", "setting": "[1]", "result": "< 0.1", "unit": "µM"}]}, {"molecule": "CCn1cc(C(=O)NC2CC2)c(=O)c2cc(NC3Cc4ccccc4C3)cnc21", "note": "[Example 3, Cyclopropylamino 6-(2,3-dihydro-1H-inden-2-ylamino)-1-ethyl-1,4-dihydro-4-oxo-1,8-naphthyridine-3-carboxamide]", "values": [{"measurement": "minimal effective concentration", "setting": "[1]", "result": "< 0.1", "unit": "µM"}]}, {"molecule": "CCn1cc(C(=O)N2CCOCC2)c(=O)c2cc(N)cnc21", "note": "[Example 4, Morpholino 6-amino-1-ethyl-1,4-dihydro-4-oxo-1,8-naphthyridine-3-carboxamide]", "values": [{"measurement": "minimal effective concentration", "setting": "[1]", "result": "< 0.1", "unit": "µM"}]}, {"molecule": "CCn1cc(C(=O)Nc2ccc(F)cc2)c(=O)c2cc(NC3Cc4ccccc4C3)cnc21", "note": "[Example 5, 4-fluorophenylamine 6-(2,3-dihydro-1H-inden-2-ylamino)-1-ethyl-1,4-dihydro-4-oxo-1,8-naphthyridine-3-carboxamide]", "values": [{"measurement": "minimal effective concentration", "setting": "[1]", "result": "< 0.1", "unit": "µM"}]}, {"molecule": "CCn1cc(C(=O)Nc2ccc(-c3ccccc3)cc2)c(=O)c2cc(NC3Cc4ccccc4C3)cnc21", "note": "[Example 6, 4-biphenylamino-6-(2,3-dihydro-1H-inden-2-ylamino)-1-ethyl-1,4-dihydro-4-oxo-1,8-naphthyridine-3-carboxamide]", "values": [{"measurement": "minimal effective concentration", "setting": "[1]", "result": "< 0.1", "unit": "µM"}]}, {"molecule": "CCOC(=O)c1cn(CC)c2ncc(NC(=O)C(C)C)cc2c1=O", "note": "[Example 7, Ethyl 6-(isobutyrylamide)-1-ethyl-1,4-dihydro-4-oxo-1,8-naphthyridine-3-carboxylate]", "values": [{"measurement": "minimal effective concentration", "setting": "[1]", "result": "< 0.1", "unit": "µM"}]}, {"molecule": "S=C([S-])OC1CC2CC1C1CCCC21.[K+]", "note": "(centres unmarked) [Example D609, reference compound]", "values": [{"measurement": "block of Compound 1-induced enhancement of neurite outgrowth by PLC inhibitor", "setting": "[1]", "result": "blocked; also recorded: significant and dose-dependant reduction"}, {"measurement": "effect on neurite outgrowth, substance alone", "setting": "[1]", "result": "enhanced neurite outgrowth"}]}, {"molecule": "COc1ccc2c(c1)CC[C@@H]1[C@@H]2CC[C@]2(C)[C@@H](NCCCCCCN3C(=O)C=CC3=O)CC[C@@H]12", "note": "[Example U73122, reference compound]", "values": [{"measurement": "block of Compound 1 activity on neurite outgrowth", "setting": "[1]; U73122 at 1 μM, Compound 1 10 nM", "result": "significant block"}, {"measurement": "concentration at which full block of Compound 1 activity occurs", "setting": "[1]; U73122 tested over 30 nM to 1 μM with Compound 1 10 nM", "result": 100, "unit": "nM"}, {"measurement": "block of Compound 1-induced enhancement of neurite outgrowth by PLC inhibitor", "setting": "[1]", "result": "blocked; also recorded: dose-related block"}, {"measurement": "effect on anxiolytic activity of Compound 1", "setting": "mouse; U73122 30 mg/kg IP in combination with 10 mg/kg p.o. Compound 1", "result": "blocks; also recorded: fully blocked the anxiolytic effect"}, {"measurement": "effect on the Time, Entries or Distance parameters, alone", "setting": "mouse; U73122 30 mg/kg IP, 120 minutes prior to testing", "result": "did not have any effect"}, {"measurement": "effect on the animals' responses to diazepam", "setting": "mouse; U73122 30 mg/kg i.p. with diazepam 1 mg/kg p.o.", "result": "did not cause any change"}]}]}
